Results from ChEMBL document CHEMBL4483862, “Open-source discovery of chemical leads for next-generation chemoprotective antimalarials” (2018).
pIC50: −log10 of the molar value.

Tested on: Plasmodium berghei
Experiment: Luciferase/luciferin-expressing antifolate-resistant parasites were used to infect a culture of HepG2 cells that were pre-incubated with compounds. Infected hepatocytes emit light due to the luciferase reaction. Assay results are presented as the percent inhibition of light emission compared to control. […]
Assay type: functional
Conditions: sporozoite; for IC90: read-out: LUCIFERASE INFECTION ASSAY - IC90
[1] = read-out: LUCIFERASE INFECTION ASSAY - IC50

Row | SMILES | pIC50 [1] | IC90 [µM] | also measured
1 | C=CCn1cnnc1SCC(=O)c1cccn1C | < 5.00 | > 10 | 
2 | Oc1c(Cl)cc(Cl)cc1/C=N/NC(=S)NC1CCCC1 |  | 3.83 | pIC50 (HEPG2TOX_HILL_SLOPE 9.72, HEPG2TOX_R_SQUARED 0.599, PBLUC_HILL_SLOPE 20.7, PBLUC_R_SQUARED 0.654, read-out: LUCIFERASE INFECTION ASSAY - IC50): 5.46
3 | Cc1ccccc1CN1CCN2C=C(C(=O)Nc3cccc(OC(F)(F)F)c3)OC2=NC1=O |  | > 10 | pIC50 (FFLUC_HILL_SLOPE 6.71, FFLUC_R_SQUARED 0.0114, read-out: LUCIFERASE INFECTION ASSAY - IC50): < 5.00
4 | CC(C)c1ccc(-n2c(SCc3ccccc3Cl)nnc2-c2ccc(C(C)(C)C)cc2)cc1 |  | 4.57 | pIC50 (PBLUC_HILL_SLOPE 6.16, PBLUC_R_SQUARED 0.605, read-out: LUCIFERASE INFECTION ASSAY - IC50): 5.49
5 | COc1ccc(-c2cnc3cnc(-c4cnn(C)c4)cn23)cc1 |  | > 10.8 | pIC50 (HEPG2TOX_HILL_SLOPE 0.995, HEPG2TOX_R_SQUARED 0.66, PBLUC_HILL_SLOPE 1.64, PBLUC_R_SQUARED 0.772, read-out: LUCIFERASE INFECTION ASSAY - IC50): 5.52
6 | Cc1cc(=O)nc(N/N=C/c2c(C)nn(-c3cccc(C(F)(F)F)c3)c2Cl)[nH]1 |  | 8.03 | pIC50 (HEPG2TOX_HILL_SLOPE 9.49, HEPG2TOX_R_SQUARED 0.952, PBLUC_HILL_SLOPE 2.17, PBLUC_R_SQUARED 0.422, read-out: LUCIFERASE INFECTION ASSAY - IC50): 5.54
7 | COc1ccc(N(CC(=O)Nc2ccc(Cl)cc2Cl)S(=O)(=O)c2cccs2)cc1 |  | 3.69 | pIC50 (HEPG2TOX_HILL_SLOPE 1.66, HEPG2TOX_R_SQUARED 0.962, PBLUC_HILL_SLOPE 19.1, PBLUC_R_SQUARED 0.554, read-out: LUCIFERASE INFECTION ASSAY - IC50): 5.48
8 | C=CCc1ccccc1OCCn1c(C2CC(=O)N(Cc3ccc(F)cc3)C2)nc2ccccc21 (stereo unspecified) |  | > 10 | pIC50 (FFLUC_HILL_SLOPE 11.3, FFLUC_R_SQUARED 0.11, read-out: LUCIFERASE INFECTION ASSAY - IC50): < 5.00
9 | Cc1cc(C)c(O)c(/C=N/NC(=S)NC(C)(C)C)c1 | < 4.93 | > 11.8 | 
10 | COc1ccc(-c2csc3ncnc(NC(C)c4ccc(Cl)cc4Cl)c23)cc1 (stereo unspecified) | < 5.00 | > 10 | 
11 | CSc1ccc(-c2nccc3n[nH]c(C4CC4)c23)cc1 |  | > 10 | pIC50 (PBLUC_HILL_SLOPE 3.07, PBLUC_R_SQUARED 0.601, read-out: LUCIFERASE INFECTION ASSAY - IC50): 5.25
12 | CCOC(=O)c1c[nH]c2cc(Cl)cc(Cl)c2c1=O | < 4.94 | > 11.5 | 
13 | OCc1ccc(-c2cnc3cnc(-c4cnn(Cc5ccccc5)c4)cn23)cc1 | < 5.06 | > 8.65 | 
14 | Cc1nn2c(=O)cc(CSc3ccc(Cl)cc3)[nH]c2c1-c1ccccc1 |  | 1.17 | pIC50 (FFLUC_HILL_SLOPE 20.8, FFLUC_R_SQUARED 0.612, HEPG2TOX_HILL_SLOPE 1.69, HEPG2TOX_R_SQUARED 0.683, PBLUC_HILL_SLOPE 14, PBLUC_R_SQUARED 0.557, read-out: LUCIFERASE INFECTION ASSAY - IC50): 6.00
15 | C=C(C)CNC(=S)N/N=C1\C(=O)Nc2ccc([N+](=O)[O-])cc21 |  | > 10 | pIC50 (FFLUC_HILL_SLOPE 2.67, FFLUC_R_SQUARED 0.288, PBLUC_HILL_SLOPE 15.8, PBLUC_R_SQUARED 0.124, read-out: LUCIFERASE INFECTION ASSAY - IC50): 5.05
16 | O=C1/C(=C/c2ccc(SC(F)(F)F)cc2)SC(=S)N1CCN1CCOCC1 | < 5.00 | > 10 | 
17 | C=C(C)C1CC=C(C)/C(=N\NC(=O)C(=O)N/N=C2/CC(C(=C)C)CC=C2C)C1 (stereo unspecified) | < 5.00 | > 10 | 
18 | COc1ccc(Sc2ccc(NC(=O)c3ccc(Cl)cc3Cl)cc2C#N)cc1 | < 5.11 | > 7.69 | 
19 | COc1ccccc1-c1nc(-c2ccc(CCCNC(C)=O)cc2)cs1 |  | > 10 | pIC50 (PBLUC_HILL_SLOPE 1.19, PBLUC_R_SQUARED 0.431, read-out: LUCIFERASE INFECTION ASSAY - IC50): 5.27
20 | CSc1nccc(-c2ccc(S(=O)(=O)n3nc(C)c([N+](=O)[O-])c3C)s2)n1 | < 5.10 | > 8.02 | 
21 | O=C(Nc1ccc(Cl)c(C(F)(F)F)c1)C(c1ccccc1)N1CC=C(c2ccccc2)CC1 (stereo unspecified) |  | > 10 | pIC50 (PBLUC_HILL_SLOPE 3.35, PBLUC_R_SQUARED 0.119, read-out: LUCIFERASE INFECTION ASSAY - IC50): 5.14
22 | CC(c1ccccc1)N(C)C(=O)c1nn(-c2ccccc2)c2c1CCC2 (stereo unspecified) | < 5.00 | > 10 | 
23 | COc1ccc(C2=NN=C/C2=N\Nc2ccc(C(F)(F)F)cc2)cc1 |  | 7.39 | pIC50 (HEPG2TOX_HILL_SLOPE 2.77, HEPG2TOX_R_SQUARED 0.967, PBLUC_HILL_SLOPE 4.55, PBLUC_R_SQUARED 0.276, read-out: LUCIFERASE INFECTION ASSAY - IC50): 5.34
24 | Cn1c(-c2ccccc2)c(C(=O)CSc2nnc(-c3cccs3)[nH]2)c2ccccc21 |  | 7.84 | pIC50 (HEPG2TOX_HILL_SLOPE 1.76, HEPG2TOX_R_SQUARED 0.96, PBLUC_HILL_SLOPE 1.67, PBLUC_R_SQUARED 0.727, read-out: LUCIFERASE INFECTION ASSAY - IC50): 5.68

Row | SMILES | pIC50 [1] | IC90 [µM] | also measured
25 | CCOC(=O)c1c(C)nn(-c2ncccc2NC(=O)Nc2cccc(Cl)c2Cl)c1C |  | > 7.36 | pIC50 (HEPG2TOX_HILL_SLOPE 1.28, HEPG2TOX_R_SQUARED 0.665, PBLUC_HILL_SLOPE 11.5, PBLUC_R_SQUARED 0.0917, read-out: LUCIFERASE INFECTION ASSAY - IC50): 5.16
26 | COC(=O)c1ccccc1N1C(=O)C=CC1=O |  | 5.93 | pIC50 (FFLUC_HILL_SLOPE 4.6, FFLUC_R_SQUARED 0.0459, HEPG2TOX_HILL_SLOPE 7.42, HEPG2TOX_R_SQUARED 0.806, PBLUC_HILL_SLOPE 7.78, PBLUC_R_SQUARED 0.766, read-out: LUCIFERASE INFECTION ASSAY - IC50): 5.35
27 | COc1cc(OC)c(C2CCN(C(=O)c3nn(-c4ccc(F)cc4)c4c3CCCC4)CC2)c(OC)c1 |  | > 10 | pIC50 (FFLUC_HILL_SLOPE 11.8, FFLUC_R_SQUARED 0.584, PBLUC_HILL_SLOPE 10.3, PBLUC_R_SQUARED 0.0293, read-out: LUCIFERASE INFECTION ASSAY - IC50): < 5.00
28 | CNc1nc2cnc(-c3cncc(OC)c3)cc2n1Cc1ccc(OC)c(OC)c1 |  | > 10 | pIC50 (PBLUC_HILL_SLOPE 6.98, PBLUC_R_SQUARED 0.0782, read-out: LUCIFERASE INFECTION ASSAY - IC50): 5.09
29 | Clc1ccccc1COc1ccccc1CNCc1cccnc1 | < 5.01 | > 9.74 | 
30 | CCOc1ccc(CN(C)c2cc(-c3ccccc3)c3ccccc3n2)cc1OC | < 5.00 | > 10 | 
31 | Oc1ccc(CNC(c2ccc3c(c2)CCC3)c2cccs2)cc1 (stereo unspecified) | < 5.00 | > 10 | 
32 | CCCCCCc1ccc(-c2csc(NC(=O)CSc3nnc(C(F)(F)F)n3C)n2)cc1 | < 5.00 | > 10 | 
33 | COc1ccccc1-c1nc2ccc(NC(=O)c3cc(C(C)(C)C)nn3C)cn2n1 | < 5.00 | > 10 | 
34 | Cc1cccc(OCCNC(=O)c2cc(S(=O)(=O)N3CCOCC3)ccc2N2CCOCC2)c1 |  | > 10 | pIC50 (HEPG2TOX_HILL_SLOPE 6.77, HEPG2TOX_R_SQUARED 0.742, read-out: LUCIFERASE INFECTION ASSAY - IC50): < 5.00
35 | COc1ccc(-c2cncc(-c3ccc(N)cc3)n2)cc1 | 5.11 | 11.7 | 
36 | Cc1ccc2[nH]c(=S)n(-c3cc(Cl)ccc3C)c(=O)c2c1 |  | > 10.4 | pIC50 (PBLUC_HILL_SLOPE 1.97, PBLUC_R_SQUARED 0.142, read-out: LUCIFERASE INFECTION ASSAY - IC50): 5.04
37 | O=S(=O)(CCN1CCC(C(c2ccccc2)c2ccccc2)CC1)c1ccc(F)cc1 |  | 5.93 | pIC50 (PBLUC_HILL_SLOPE 2.04, PBLUC_R_SQUARED 0.498, read-out: LUCIFERASE INFECTION ASSAY - IC50): 5.69
38 | CCn1nnnc1Sc1ncnc2scc(-c3ccc(C)cc3)c12 | < 5.00 | > 10 | 
39 | OCc1cccc(-c2cnc3cnc(-c4ccccc4Oc4ccccc4)cn23)c1 | < 5.08 | > 8.39 | 
40 | COCCNC(=O)Cn1nnc(C)c1COc1ccc2ccccc2c1 | < 5.03 | > 9.31 | 
41 | CC(C)(C)c1ccc(C(=O)Nc2ccc(N3CCCS3(=O)=O)cc2)cc1[N+](=O)[O-] |  | 5.03 | pIC50 (HEPG2TOX_HILL_SLOPE 9.4, HEPG2TOX_R_SQUARED 0.847, PBLUC_HILL_SLOPE 1.92, PBLUC_R_SQUARED 0.511, read-out: LUCIFERASE INFECTION ASSAY - IC50): 5.80
42 | COc1cc(-c2ccc3ncc(-c4cccc(NC(C)=O)c4)n3n2)cc(OC)c1OC |  | 4.34 | pIC50 (HEPG2TOX_HILL_SLOPE 0.736, HEPG2TOX_R_SQUARED 0.983, PBLUC_HILL_SLOPE 1.49, PBLUC_R_SQUARED 0.582, read-out: LUCIFERASE INFECTION ASSAY - IC50): 6.00
43 | CCCn1c(NC(=O)c2ccc3ncsc3c2)nc2ccccc21 | 5.07 | 9.62 | 
44 | COc1cc(NC(=S)Nc2ccc(Cl)cc2)cc(C(F)(F)F)c1 | < 5.04 | > 9.15 | 
45 | COc1ccc(CNCc2ccc(N3CCCCCC3)cc2)cc1 |  | > 10 | pIC50 (PBLUC_HILL_SLOPE 0.677, PBLUC_R_SQUARED 0.204, read-out: LUCIFERASE INFECTION ASSAY - IC50): < 5.00
46 | Cc1cccc(-c2nc(-c3cc(C)n(-c4nnc[nH]4)c3C)cs2)c1 | 5.01 | > 10 | 
47 | COC(=O)c1c(N)[nH]c2cc(C(F)(F)F)ccc12 | < 4.89 | > 12.8 | 
48 | c1ccc(-c2cc3c(Nc4ccccn4)nccc3[nH]2)cc1 | < 5.00 | > 10 | 
